Test results taken from the NIST ThermoML archive (doi:10.1016/j.fluid.2008.06.014).

Conditions: Liquid, vibrating wire

CCOCC [diethyl ether]
Conditions | mass density [kg/m3] | viscosity [mPa·s]
243.15 K, 100 kPa | 768.339 | 0.412
243.15 K, 4360 kPa | 771.759 | 0.427
243.15 K, 9400 kPa | 775.801 | 0.445
243.15 K, 14450 kPa | 779.603 | 0.463
243.15 K, 19460 kPa | 783.16 | 0.481
253.15 K, 100 kPa | 758.413 | 0.363
253.15 K, 4440 kPa | 762.367 | 0.377
253.15 K, 9400 kPa | 766.683 | 0.392
253.15 K, 14460 kPa | 770.762 | 0.408
253.15 K, 19510 kPa | 774.696 | 0.424
263.15 K, 100 kPa | 747.885 | 0.323
263.15 K, 4390 kPa | 752.036 | 0.335
263.15 K, 9440 kPa | 756.778 | 0.35
263.15 K, 14430 kPa | 761.197 | 0.364
263.15 K, 19430 kPa | 765.357 | 0.378
273.15 K, 100 kPa | 736.593 | 0.288
273.15 K, 4380 kPa | 741.075 | 0.3
273.15 K, 9430 kPa | 746.224 | 0.313
273.15 K, 14470 kPa | 750.968 | 0.326
273.15 K, 19480 kPa | 755.407 | 0.339
283.15 K, 100 kPa | 725.632 | 0.26
283.15 K, 4390 kPa | 730.65 | 0.27
283.15 K, 9420 kPa | 735.997 | 0.283
283.15 K, 14500 kPa | 741.302 | 0.294
283.15 K, 19540 kPa | 746.114 | 0.307
293.15 K, 100 kPa | 714.517 | 0.235
293.15 K, 4380 kPa | 719.86 | 0.245
293.15 K, 9420 kPa | 725.825 | 0.256
293.15 K, 14480 kPa | 731.278 | 0.268
293.15 K, 19490 kPa | 736.437 | 0.28
303.15 K, 220 kPa | 702.89 | 0.214
303.15 K, 4380 kPa | 708.706 | 0.223
303.15 K, 9420 kPa | 715.312 | 0.234
303.15 K, 14500 kPa | 721.122 | 0.245
303.15 K, 19560 kPa | 726.788 | 0.256
313.15 K, 410 kPa | 691.21 | 0.195
313.15 K, 4360 kPa | 697.329 | 0.203
313.15 K, 9430 kPa | 704.446 | 0.214
313.15 K, 14520 kPa | 710.954 | 0.225
313.15 K, 19610 kPa | 717.082 | 0.235
323.15 K, 350 kPa | 678.758 | 0.179
323.15 K, 4380 kPa | 685.74 | 0.187
323.15 K, 9430 kPa | 693.587 | 0.197
323.15 K, 14490 kPa | 700.362 | 0.209
323.15 K, 19510 kPa | 707.014 | 0.217
333.15 K, 410 kPa | 666.408 | 0.163
333.15 K, 4390 kPa | 673.959 | 0.172
333.15 K, 9430 kPa | 682.531 | 0.182
333.15 K, 14470 kPa | 690.138 | 0.192
333.15 K, 19470 kPa | 697.082 | 0.201
343.15 K, 340 kPa | 653.148 | 0.15
343.15 K, 4390 kPa | 661.825 | 0.158
343.15 K, 9420 kPa | 671.37 | 0.167
343.15 K, 14460 kPa | 679.704 | 0.178
343.15 K, 19470 kPa | 687.162 | 0.187
353.15 K, 410 kPa | 639.678 | 0.137
353.15 K, 4380 kPa | 649.165 | 0.146
353.15 K, 9410 kPa | 659.723 | 0.155
353.15 K, 14440 kPa | 668.759 | 0.165
353.15 K, 19400 kPa | 676.864 | 0.174
363.15 K, 510 kPa | 625.615 | 0.126
363.15 K, 4380 kPa | 636.228 | 0.134
363.15 K, 9390 kPa | 647.821 | 0.144
363.15 K, 14400 kPa | 657.773 | 0.153
363.15 K, 19350 kPa | 666.459 | 0.162
373.15 K, 650 kPa | 610.791 | 0.116
373.15 K, 4380 kPa | 622.533 | 0.124
373.15 K, 9380 kPa | 635.564 | 0.134
373.15 K, 14400 kPa | 646.594 | 0.143
373.15 K, 19460 kPa | 656.28 | 0.151
